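Each compound was tested at five concentrations against cells in 96-well plates for 48 hours. The concentration for full growth arrest is given as TGI.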
Tests used:
Test in all cases: growth of human tumour cells (NCI), 48 h
786-0 renal = tested on: 786-0 renal
A498 renal = tested on: A498 renal
A549 NSCLC = tested on: A549 NSCLC
ACHN renal = tested on: ACHN renal
CCRF-CEM leukemia = tested on: CCRF-CEM leukemia
COLO 205 colon = tested on: COLO 205 colon
DLD-1 colon = tested on: DLD-1 colon
DMS 114 small cell lung = tested on: DMS 114 small cell lung
EKVX NSCLC = tested on: EKVX NSCLC
HCC-2998 colon = tested on: HCC-2998 colon
HCT-116 colon = tested on: HCT-116 colon
HL-60(TB) leukemia = tested on: HL-60(TB) leukemia
HOP-18 NSCLC = tested on: HOP-18 NSCLC
HOP-62 NSCLC = tested on: HOP-62 NSCLC
HOP-92 NSCLC = tested on: HOP-92 NSCLC
HT29 colon = tested on: HT29 colon
IGROV1 ovarian = tested on: IGROV1 ovarian
KM12 colon = tested on: KM12 colon
KM20L2 colon = tested on: KM20L2 colon
LOX IMVI melanoma = tested on: LOX IMVI melanoma
LXFL 529 NSCLC = tested on: LXFL 529 NSCLC
M14 melanoma = tested on: M14 melanoma
M19-MEL melanoma = tested on: M19-MEL melanoma
MALME-3M melanoma = tested on: MALME-3M melanoma
MOLT-4 leukemia = tested on: MOLT-4 leukemia
NCI-H226 lung = tested on: NCI-H226 lung
NCI-H23 lung = tested on: NCI-H23 lung
NCI-H460 lung = tested on: NCI-H460 lung
OVCAR-3 ovarian = tested on: OVCAR-3 ovarian
OVCAR-4 ovarian = tested on: OVCAR-4 ovarian
OVCAR-5 ovarian = tested on: OVCAR-5 ovarian
OVCAR-8 ovarian = tested on: OVCAR-8 ovarian
RPMI-8226 leukemia = tested on: RPMI-8226 leukemia
RXF 393 renal = tested on: RXF 393 renal
RXF-631 renal = tested on: RXF-631 renal
SF-268 CNS = tested on: SF-268 CNS
SF-295 CNS = tested on: SF-295 CNS
SK-MEL-2 melanoma = tested on: SK-MEL-2 melanoma
SK-MEL-28 melanoma = tested on: SK-MEL-28 melanoma
SK-MEL-5 melanoma = tested on: SK-MEL-5 melanoma
SN12C renal = tested on: SN12C renal
SNB-19 CNS = tested on: SNB-19 CNS
SNB-75 CNS = tested on: SNB-75 CNS
SNB-78 CNS = tested on: SNB-78 CNS
SW-620 colon = tested on: SW-620 colon
TK-10 renal = tested on: TK-10 renal
U251 CNS = tested on: U251 CNS
UACC-257 melanoma = tested on: UACC-257 melanoma
UACC-62 melanoma = tested on: UACC-62 melanoma
UO-31 renal = tested on: UO-31 renal
XF 498 CNS = tested on: XF 498 CNS

Measured: TGI

NC(=O)/C(=N\NC(=O)c1cc2ccccc2cc1O)C1C(=O)N(c2ccccc2)N=C1N (stereo unspecified)
37.5 µM: A498 renal
83 µM: SK-MEL-2 melanoma
53.2 µM: DMS 114 small cell lung
47.2 µM: HL-60(TB) leukemia
87.6 µM: CCRF-CEM leukemia
35.9 µM: UACC-62 melanoma
94.5 µM: MOLT-4 leukemia
54 µM: OVCAR-5 ovarian
56.5 µM: NCI-H23 lung
37.2 µM: SK-MEL-5 melanoma
94.6 µM: HOP-92 NSCLC
65 µM: UACC-257 melanoma
> 100 µM: all other assays above

Reference: PubChem BioAssay (NCI)
